Earlier results in patent US20070148100A1 (priority 2005, published 2007).

Experiments:
5-HT1A receptor = molecular target: T1, 5-HT1A receptor (Homo sapiens, UniProt P08908)
T1 sequence (P08908 1-422): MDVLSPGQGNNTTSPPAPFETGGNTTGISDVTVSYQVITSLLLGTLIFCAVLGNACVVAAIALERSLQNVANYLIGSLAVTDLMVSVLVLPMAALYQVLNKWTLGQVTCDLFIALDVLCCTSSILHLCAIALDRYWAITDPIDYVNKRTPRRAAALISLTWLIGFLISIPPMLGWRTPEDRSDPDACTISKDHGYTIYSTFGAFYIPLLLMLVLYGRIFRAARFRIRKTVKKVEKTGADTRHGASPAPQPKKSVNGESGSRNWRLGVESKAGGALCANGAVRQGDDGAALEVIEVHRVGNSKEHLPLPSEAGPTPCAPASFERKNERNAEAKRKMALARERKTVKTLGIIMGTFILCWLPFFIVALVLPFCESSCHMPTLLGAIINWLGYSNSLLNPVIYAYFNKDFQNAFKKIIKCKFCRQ

5-HT2A receptor = 5-HT2A receptor (Homo sapiens, UniProt P28223)
[1] = test system: alpha-adrenergic receptors
[2] = test system: cholinergic muscarinic receptors

Chain of 5-HT2A receptor (P28223 whole entry): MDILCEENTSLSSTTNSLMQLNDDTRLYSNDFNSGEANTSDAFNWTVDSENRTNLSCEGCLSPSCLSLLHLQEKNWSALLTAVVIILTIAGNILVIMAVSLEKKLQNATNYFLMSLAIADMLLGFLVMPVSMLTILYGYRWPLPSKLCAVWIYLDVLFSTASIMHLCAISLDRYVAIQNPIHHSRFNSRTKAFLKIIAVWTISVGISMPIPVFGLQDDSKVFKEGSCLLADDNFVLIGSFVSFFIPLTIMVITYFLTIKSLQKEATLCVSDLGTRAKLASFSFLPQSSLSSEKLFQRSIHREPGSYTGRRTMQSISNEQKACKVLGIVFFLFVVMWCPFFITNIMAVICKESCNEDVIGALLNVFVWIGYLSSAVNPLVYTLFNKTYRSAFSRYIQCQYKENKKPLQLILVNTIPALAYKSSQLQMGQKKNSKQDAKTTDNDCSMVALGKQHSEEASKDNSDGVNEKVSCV

O=C1CCc2ccc(OCCCCN3CCN(c4cccc(Cl)c4Cl)CC3)cc2N1 [Aripiprazole, 7-[4-[4-(2,3-dichlorophenyl)-1-piperazinyl]butoxy]-3,4-dihydrocarbostyril]
activity at the 5-HT1A receptor (5-HT1A receptor): partial agonist
activity at the 5-HT2A receptor (5-HT2A receptor): antagonist profile
affinity for histamine receptors (histamine receptors): moderate affinity
affinity for alpha-adrenergic receptors [1]: moderate affinity
affinity for cholinergic muscarinic receptors [2]: no appreciable affinity
elimination half-life (in vivo): approximately 75 hours
kinetics (linearity) (in vivo): linear kinetics
bioavailability (oral tablets): about 90%
